{"source": "ChEMBL document CHEMBL4819125", "about": "“Synthesis and anti-proliferation activity of mogrol derivatives bearing quinoline and triazole moieties” (Bioorg Med Chem Lett, 2021)", "key": {"[1]": {"tested_on": "A549", "test": "Antiproliferative activity against human A549 cells assessed as reduction in cell growth by CCK8 assay", "type": "functional, cell-based"}, "[2]": {"tested_on": "A549", "test": "Antiproliferative activity against human A549 cells assessed as reduction in cell growth at 30 uM by CCK8 assay relative to control", "type": "functional"}, "[3]": {"tested_on": "NCI-H460", "test": "Antiproliferative activity against human NCI-H460 cells assessed as reduction in cell growth at 30 uM by CCK8 assay relative to control", "type": "functional"}, "[4]": {"tested_on": "NCI-H460", "test": "Antiproliferative activity against human NCI-H460 cells assessed as reduction in cell growth by CCK8 assay", "type": "functional, cell-based"}}, "note": "pIC50: −log10 of the molar value.", "data": [{"compound": "C[C@H](CCCOC(=O)Cn1cc(-c2ccccc2)nn1)[C@H]1CC[C@@]2(C)[C@@H]3CC=C4[C@@H](CC[C@H](O)C4(C)C)[C@]3(C)[C@H](O)C[C@]12C", "values": [{"measurement": "pIC50", "setting": "[1]", "result": 4.65}, {"measurement": "inhibition at 30 µM", "setting": "[2]", "result": 87.9, "unit": "%"}, {"measurement": "inhibition at 30 µM", "setting": "[3]", "result": 7.56, "unit": "%"}]}, {"compound": "Cc1ccc(-c2cn(CC(=O)O[C@@H]3C[C@]4(C)[C@@H]([C@H](C)CC[C@@H](O)C(C)(C)O)CC[C@@]4(C)[C@@H]4CC=C5[C@@H](CC[C@H](O)C5(C)C)[C@@]43C)nn2)cc1", "values": [{"measurement": "pIC50", "setting": "[1]", "result": 5.22}, {"measurement": "inhibition at 30 µM", "setting": "[2]", "result": 77.3, "unit": "%"}, {"measurement": "inhibition at 30 µM", "setting": "[3]", "result": 40, "unit": "%"}]}, {"compound": "C[C@H](CC[C@@H](O)C(C)(C)O)[C@H]1CC[C@@]2(C)[C@@H]3CC=C4[C@@H](Cc5cc6ccncc6nc5C4(C)C)[C@]3(C)C(=O)C[C@]12C", "values": [{"measurement": "pIC50", "setting": "[1]", "result": 4.84}, {"measurement": "pIC50", "setting": "[4]", "result": 4.74}, {"measurement": "inhibition at 30 µM", "setting": "[2]", "result": 95.2, "unit": "%"}, {"measurement": "inhibition at 30 µM", "setting": "[3]", "result": 81.1, "unit": "%"}]}, {"compound": "C[C@H](Cc1cnc2cc(Br)ccc2c1)[C@H]1CC[C@@]2(C)[C@@H]3CC=C4[C@@H](CC[C@H](O)C4(C)C)[C@]3(C)[C@H](O)C[C@]12C", "values": [{"measurement": "inhibition at 30 µM", "setting": "[2]", "result": 42.7, "unit": "%"}, {"measurement": "inhibition at 30 µM", "setting": "[3]", "result": 0.71, "unit": "%"}]}, {"compound": "C[C@H](CC[C@@H](O)C(C)(C)O)[C@H]1CC[C@@]2(C)[C@@H]3CC=C4[C@@H](CC[C@H](O)C4(C)C)[C@]3(C)[C@H](OC(=O)Cn3cc(-c4ccc(C#N)cc4)nn3)C[C@]12C", "values": [{"measurement": "pIC50", "setting": "[1]", "result": 5.24}, {"measurement": "inhibition at 30 µM", "setting": "[2]", "result": 76.7, "unit": "%"}, {"measurement": "inhibition at 30 µM", "setting": "[3]", "result": 20.5, "unit": "%"}]}, {"compound": "C[C@H](CC[C@@H](O)C(C)(C)O)[C@H]1CC[C@@]2(C)[C@@H]3CC=C4[C@@H](CC[C@H](O)C4(C)C)[C@]3(C)[C@H](OC(=O)Cn3cc(-c4ccsc4)nn3)C[C@]12C", "values": [{"measurement": "pIC50", "setting": "[1]", "result": 5.20}, {"measurement": "inhibition at 30 µM", "setting": "[2]", "result": 90.5, "unit": "%"}, {"measurement": "inhibition at 30 µM", "setting": "[3]", "result": 44.9, "unit": "%"}]}, {"compound": "C[C@H](CC[C@@H](O)C(C)(C)O)[C@H]1CC[C@@]2(C)[C@@H]3CC=C4[C@@H](Cc5cc6ccccc6nc5C4(C)C)[C@]3(C)C(=O)C[C@]12C", "values": [{"measurement": "pIC50", "setting": "[1]", "result": 4.86}, {"measurement": "pIC50", "setting": "[4]", "result": 4.77}, {"measurement": "inhibition at 30 µM", "setting": "[2]", "result": 94.3, "unit": "%"}, {"measurement": "inhibition at 30 µM", "setting": "[3]", "result": 80.2, "unit": "%"}]}, {"compound": "C[C@H](Cc1cnc2cnccc2c1)[C@H]1CC[C@@]2(C)[C@@H]3CC=C4[C@@H](CC[C@H](O)C4(C)C)[C@]3(C)[C@H](O)C[C@]12C", "values": [{"measurement": "pIC50", "setting": "[1]", "result": 4.74}, {"measurement": "inhibition at 30 µM", "setting": "[2]", "result": 90.2, "unit": "%"}, {"measurement": "inhibition at 30 µM", "setting": "[3]", "result": 25.8, "unit": "%"}]}, {"compound": "C[C@H](CC[C@@H](O)C(C)(C)O)[C@H]1CC[C@@]2(C)[C@@H]3CC=C4[C@@H](Cc5cc6cc(Cl)ccc6nc5C4(C)C)[C@]3(C)C(=O)C[C@]12C", "values": [{"measurement": "pIC50", "setting": "[1]", "result": 4.89}, {"measurement": "inhibition at 30 µM", "setting": "[2]", "result": 84.1, "unit": "%"}, {"measurement": "inhibition at 30 µM", "setting": "[3]", "result": 13.1, "unit": "%"}]}, {"compound": "C[C@H](CC[C@@H](O)C(C)(C)O)[C@H]1CC[C@@]2(C)[C@@H]3CC=C4[C@@H](Cc5cc6cc(Br)ccc6nc5C4(C)C)[C@]3(C)C(=O)C[C@]12C", "values": [{"measurement": "pIC50", "setting": "[1]", "result": 4.88}, {"measurement": "inhibition at 30 µM", "setting": "[2]", "result": 69.4, "unit": "%"}, {"measurement": "inhibition at 30 µM", "setting": "[3]", "result": 17, "unit": "%"}]}, {"compound": "C[C@H](CC[C@@H](O)C(C)(C)O)[C@H]1CC[C@@]2(C)[C@@H]3CC=C4[C@@H](CC[C@H](O)C4(C)C)[C@]3(C)[C@H](O)C[C@]12C", "note": "[MOGROL]", "values": [{"measurement": "pIC50", "setting": "[1]", "result": 4.56}, {"measurement": "pIC50", "setting": "[4]", "result": "< 4.00"}, {"measurement": "inhibition at 30 µM", "setting": "[2]", "result": 62.9, "unit": "%"}, {"measurement": "inhibition at 30 µM", "setting": "[3]", "result": -13.2, "unit": "%"}]}, {"compound": "O=c1[nH]cc(F)c(=O)[nH]1", "note": "[FLUOROURACIL]", "values": [{"measurement": "pIC50", "setting": "[1]", "result": 5.78}, {"measurement": "pIC50", "setting": "[4]", "result": 5.15}]}, {"compound": "C[C@H](CC[C@@H](O)C(C)(C)O)[C@H]1CC[C@@]2(C)[C@@H]3CC=C4[C@@H](CC[C@H](O)C4(C)C)[C@]3(C)[C@H](OC(=O)Cn3cc(C4CC4)nn3)C[C@]12C", "values": [{"measurement": "pIC50", "setting": "[1]", "result": 4.70}, {"measurement": "inhibition at 30 µM", "setting": "[2]", "result": 92.9, "unit": "%"}, {"measurement": "inhibition at 30 µM", "setting": "[3]", "result": 34.7, "unit": "%"}]}, {"compound": "C[C@H](CCCOC(=O)Cn1cc(C2CC2)nn1)[C@H]1CC[C@@]2(C)[C@@H]3CC=C4[C@@H](CC[C@H](O)C4(C)C)[C@]3(C)[C@H](O)C[C@]12C", "values": [{"measurement": "pIC50", "setting": "[1]", "result": 4.75}, {"measurement": "inhibition at 30 µM", "setting": "[2]", "result": 89.2, "unit": "%"}, {"measurement": "inhibition at 30 µM", "setting": "[3]", "result": 6.43, "unit": "%"}]}, {"compound": "C[C@H](Cc1cnc2ccccc2c1)[C@H]1CC[C@@]2(C)[C@@H]3CC=C4[C@@H](CC[C@H](O)C4(C)C)[C@]3(C)[C@H](O)C[C@]12C", "values": [{"measurement": "pIC50", "setting": "[1]", "result": 4.72}, {"measurement": "pIC50", "setting": "[4]", "result": 4.61}, {"measurement": "inhibition at 30 µM", "setting": "[2]", "result": 91.5, "unit": "%"}, {"measurement": "inhibition at 30 µM", "setting": "[3]", "result": 69.9, "unit": "%"}]}, {"compound": "C[C@H](CCCOC(=O)Cn1cc(-c2ccsc2)nn1)[C@H]1CC[C@@]2(C)[C@@H]3CC=C4[C@@H](CC[C@H](O)C4(C)C)[C@]3(C)[C@H](O)C[C@]12C", "values": [{"measurement": "pIC50", "setting": "[1]", "result": 4.58}, {"measurement": "inhibition at 30 µM", "setting": "[2]", "result": 90.5, "unit": "%"}, {"measurement": "inhibition at 30 µM", "setting": "[3]", "result": 8.3, "unit": "%"}]}, {"compound": "C[C@H](CC[C@@H](O)C(C)(C)O)[C@H]1CC[C@@]2(C)[C@@H]3CC=C4[C@@H](Cc5cc6ccc(Cl)cc6nc5C4(C)C)[C@]3(C)C(=O)C[C@]12C", "values": [{"measurement": "inhibition at 30 µM", "setting": "[2]", "result": 6.68, "unit": "%"}, {"measurement": "inhibition at 30 µM", "setting": "[3]", "result": 2.18, "unit": "%"}]}, {"compound": "C[C@H](Cc1cnc2ccc(Cl)cc2c1)[C@H]1CC[C@@]2(C)[C@@H]3CC=C4[C@@H](CC[C@H](O)C4(C)C)[C@]3(C)[C@H](O)C[C@]12C", "values": [{"measurement": "inhibition at 30 µM", "setting": "[2]", "result": 10.6, "unit": "%"}, {"measurement": "inhibition at 30 µM", "setting": "[3]", "result": -12.6, "unit": "%"}]}, {"compound": "Cc1ccc(-c2cn(CC(=O)OCCC[C@@H](C)[C@H]3CC[C@@]4(C)[C@@H]5CC=C6[C@@H](CC[C@H](O)C6(C)C)[C@]5(C)[C@H](O)C[C@]34C)nn2)cc1", "values": [{"measurement": "pIC50", "setting": "[1]", "result": 4.62}, {"measurement": "inhibition at 30 µM", "setting": "[2]", "result": 88.4, "unit": "%"}, {"measurement": "inhibition at 30 µM", "setting": "[3]", "result": 10.9, "unit": "%"}]}, {"compound": "C[C@H](CC[C@@H](O)C(C)(C)O)[C@H]1CC[C@@]2(C)[C@@H]3CC=C4[C@@H](Cc5cc6ccc(Br)cc6nc5C4(C)C)[C@]3(C)C(=O)C[C@]12C", "values": [{"measurement": "inhibition at 30 µM", "setting": "[2]", "result": 22, "unit": "%"}, {"measurement": "inhibition at 30 µM", "setting": "[3]", "result": 1.65, "unit": "%"}]}, {"compound": "C[C@H](Cc1cnc2ccc(Br)cc2c1)[C@H]1CC[C@@]2(C)[C@@H]3CC=C4[C@@H](CC[C@H](O)C4(C)C)[C@]3(C)[C@H](O)C[C@]12C", "values": [{"measurement": "inhibition at 30 µM", "setting": "[2]", "result": 53.3, "unit": "%"}, {"measurement": "inhibition at 30 µM", "setting": "[3]", "result": -12.4, "unit": "%"}]}, {"compound": "C[C@H](Cc1cnc2cc(Cl)ccc2c1)[C@H]1CC[C@@]2(C)[C@@H]3CC=C4[C@@H](CC[C@H](O)C4(C)C)[C@]3(C)[C@H](O)C[C@]12C", "values": [{"measurement": "inhibition at 30 µM", "setting": "[2]", "result": 17.4, "unit": "%"}, {"measurement": "inhibition at 30 µM", "setting": "[3]", "result": -1.18, "unit": "%"}]}, {"compound": "C[C@H](CC[C@@H](O)C(C)(C)O)[C@H]1CC[C@@]2(C)[C@@H]3CC=C4[C@@H](CC[C@H](O)C4(C)C)[C@]3(C)[C@H](OC(=O)Cn3cc(-c4ccccc4)nn3)C[C@]12C", "values": [{"measurement": "pIC50", "setting": "[1]", "result": 5.17}, {"measurement": "inhibition at 30 µM", "setting": "[2]", "result": 83, "unit": "%"}, {"measurement": "inhibition at 30 µM", "setting": "[3]", "result": 44.9, "unit": "%"}]}]}
